The test system of one data set is bacterial inoculum. In words: Neutralization of biocides with other nitrogen compounds. The conditions noted are these: for microbial growth: n-C16; for neutralizing 10 ppm of gluteraldehyde: two moles per mole gluteraldehyde. It is filed as cell-based. The text has this:
The different nitrogen-containing compounds evaluated include the following:

In a further data set the test system is alkane degrading culture. In words: Evaluation of biocides: growth inhibition on FT diesel and ALAD diesel. As to microbial growth: key: −: No Growth; +: Growth (White Unless Otherwise Indicated). Type of data set: cell-based. On the procedure:
Growth Media: A standard minimal media containing only inorganic nutrients required for bacterial growth was used. The medium used to supply inorganic micronutrients to the growing culture of alkane degrading organisms consisted of 0.1 g/L MgSO4.7H2O, 0.5 g/L NaNO3, 0.02 millimolar FeSO4 and 0.63 g/L K2HPO4 and 0.19 g/L KH2PO4 to achieve a pH of 7 to 7.3.
Test Conditions: 90 ml of growth media and 10 ml of either FT diesel or low sulfur (ALAD) diesel was added to 250 ml flasks. […] In addition to 2 alkynes, glutaraldehyde (glutaric dialdehyde 50%), was tested. The following summarizes the test conditions:
Sterile control (media boiled prior to adding FT or ALAD, not inoculated)
Inculated control (no inhibitor)
100 ppm inhibitor (on a total test volume basis or 1000 ppm in diesel)
1% inhibitor (on a total test volume basis or 10% in diesel).
After inoculation, the flasks were place on a shaker-table (135 rpm) at room temperature and observed daily.

A further data set relates to microbial growth. As to the kind of experiment: Evaluation of lower amounts of water. It is filed as cell-based. The conditions noted are these: 100 ppm; 90% Fischer-Tropsch diesel fuel, 10% minimal media; after 16 days. An excerpt: In this example, an experiment was done using a lower amount of water. 90% Fischer-Tropsch diesel fuel was mixed with 10% minimal media. One flask was used as a control and the other contained 100 ppm […].

Data set [1] relates to Larval Sheepshead Minnow (Cyprinodon variegatus). In words: in vivo. Type of data set: in vivo. The conditions noted are these: Cyprinodon variegatus (sheepshead minnow), in vivo, 96 h. The procedure: […]. EPA/600/4-90/027F Washington D.C. section 2.02, paragraph 1.) conducted at Pacific Eco-Risk Laboratories, Martinez, Calif.
LOEC is the Lowest Observable Effect Concentration and is defined as the minimum concentration where mortality is observed for the test species. […] LC-50, the concentration that will cause mortality of 50% of the organisms tested within 96 h, is a calculated value based on all observations.
The solutions were mixed for 48 hours prior to the start of the bioassays. The solutions were diluted to perform bioassays at starting glutaraldehyde concentrations of 100, 50, 37.5, 25, and 10, 5 mg/L

Setting [2] is: 10 ppm gluteraldehyde + two moles nitrogen compound per mole, day 0.
Where [3] appears, read: 10 ppm gluteraldehyde + two moles nitrogen compound per mole, day 1.
Where [4] appears, read: 10 ppm gluteraldehyde + two moles nitrogen compound per mole, day 2.
Where [5] appears, read: 10 ppm gluteraldehyde + two moles nitrogen compound per mole, day 6.
The mark [6] stands for this setting: 10 ppm gluteraldehyde + two moles nitrogen compound per mole, day 7.
[7] abbreviates: 10 ppm gluteraldehyde + two moles nitrogen compound per mole, day 9.
The mark [8] stands for this setting: 10 ppm gluteraldehyde + two moles nitrogen compound per mole, day 13.
The mark [9] stands for this setting: 10 ppm gluteraldehyde + two moles nitrogen compound per mole, day 20.
[10] abbreviates: control: nitrogen compound without gluteraldehyde, day 0.
Where [11] appears, read: control: nitrogen compound without gluteraldehyde, day 1.
The mark [12] stands for this setting: control: nitrogen compound without gluteraldehyde, day 2.
The mark [13] stands for this setting: control: nitrogen compound without gluteraldehyde, day 6.
The mark [14] stands for this setting: control: nitrogen compound without gluteraldehyde, day 7.
The mark [15] stands for this setting: control: nitrogen compound without gluteraldehyde, day 9.
Where [16] appears, read: control: nitrogen compound without gluteraldehyde, day 13.
[17] abbreviates: control: nitrogen compound without gluteraldehyde, day 20.
The mark [18] stands for this setting: LA (ALAD) Diesel + 1 Wt %, Day 0.
[19] abbreviates: LA (ALAD) Diesel + 1 Wt %, Day 1.
[20] abbreviates: LA (ALAD) Diesel + 1 Wt %, Day 5.
Where [21] appears, read: LA (ALAD) Diesel + 1 Wt %, Day 7.
Setting [22] is: LA (ALAD) Diesel + 1 Wt %, Day 8.
Where [23] appears, read: LA (ALAD) Diesel + 1 Wt %, Day 19.
[24] abbreviates: LA (ALAD) Diesel + 100 ppm, Day 0.
[25] abbreviates: LA (ALAD) Diesel + 100 ppm, Day 1.
Where [26] appears, read: LA (ALAD) Diesel + 100 ppm, Day 5.
Setting [27] is: LA (ALAD) Diesel + 100 ppm, Day 7.
Setting [28] is: LA (ALAD) Diesel + 100 ppm, Day 8.
[29] abbreviates: LA (ALAD) Diesel + 100 ppm, Day 19.

Consider `OCCNCCO` [DEA, Diethanolamine], for which, in the data set with bacterial inoculum, the “toxicity of the nitrogen-containing compound to microbial growth” value (shortened to “toxicity”) was “not excessively toxic”. Moreover, the microbial growth entry in the data set with bacterial inoculum (setting [2]) is reported as “−”; with bacterial inoculum (setting [3]) it was “+”; in the data set with bacterial inoculum (setting [4]), “+”; with bacterial inoculum (setting [5]) it was “+”; in the data set with bacterial inoculum (setting [6]), “+”; in the data set on bacterial inoculum (setting [7]) it was “+”. For the same compound, the microbial growth entry with bacterial inoculum (setting [8]) is “+”; with bacterial inoculum (setting [9]) it was “+”; with bacterial inoculum (setting [10]), “−”; in the data set on bacterial inoculum (setting [11]) it was “−”; in the data set with bacterial inoculum (setting [12]) it was “−”; with bacterial inoculum (setting [13]), “+”. The microbial growth result with bacterial inoculum (setting [14]), with bacterial inoculum (setting [15]), in the data set with bacterial inoculum (setting [16]) and in the data set with bacterial inoculum (setting [17]) was “+” each time. Moreover, the “neutralizing 10 ppm of gluteraldehyde” value in the data set with bacterial inoculum was “effective”.

Take `C#CCCCC` [H, 1-hexyne]: the microbial growth result with alkane degrading culture (FT Diesel + 1 Wt %, Day 0) is “−”; in the data set with alkane degrading culture (FT Diesel + 1 Wt %, Day 1) it was “−”; with alkane degrading culture (FT Diesel + 1 Wt %, Day 5) it was “−”; in the data set on alkane degrading culture (FT Diesel + 1 Wt %, Day 7) it was “−”; in the data set on alkane degrading culture (FT Diesel + 1 Wt %, Day 8) it was “−”; with alkane degrading culture (FT Diesel + 1 Wt %, Day 19), “−”. The microbial growth entry in the data set on alkane degrading culture (FT Diesel + 100 ppm, Day 0) is recorded as “−”; with alkane degrading culture (FT Diesel + 100 ppm, Day 1), “−”; with alkane degrading culture (FT Diesel + 100 ppm, Day 5), “+”; with alkane degrading culture (FT Diesel + 100 ppm, Day 7), “+”; in the data set on alkane degrading culture (FT Diesel + 100 ppm, Day 8), “+”; in the data set on alkane degrading culture (FT Diesel + 100 ppm, Day 19), “+”. The microbial growth entry in the data set on alkane degrading culture (setting [18]), in the data set on alkane degrading culture (setting [19]), in the data set on alkane degrading culture (setting [20]), with alkane degrading culture (setting [21]), in the data set on alkane degrading culture (setting [22]) and with alkane degrading culture (setting [23]) was “−” throughout. Besides, the microbial growth entry in the data set on alkane degrading culture (setting [24]) was “−”; with alkane degrading culture (setting [25]), “−”; in the data set with alkane degrading culture (setting [26]), “+”; with alkane degrading culture (setting [27]) it was “+”; in the data set on alkane degrading culture (setting [28]), “+”; with alkane degrading culture (setting [29]) it was “+”. Also, in the data set with microbial growth, the microbial growth entry is given as “no growth”.

For the compound `NCCO` [MEA, Monoethanolamine], in the data set with bacterial inoculum, the “toxicity” value is reported as “not excessively toxic”. For the same compound, the microbial growth entry in the data set on bacterial inoculum (setting [2]) was “−”; in the data set with bacterial inoculum (setting [3]) it was “−”; in the data set on bacterial inoculum (setting [4]), “−”; in the data set with bacterial inoculum (setting [5]), “+”; in the data set with bacterial inoculum (setting [6]), “+”; in the data set with bacterial inoculum (setting [7]) it was “+”. The microbial growth result is “+” with bacterial inoculum (setting [8]); “+” in the data set with bacterial inoculum (setting [9]); “−” with bacterial inoculum (setting [10]); “−” in the data set on bacterial inoculum (setting [11]); “−” in the data set on bacterial inoculum (setting [12]); “−” in the data set with bacterial inoculum (setting [13]). For the same compound, the microbial growth entry in the data set with bacterial inoculum (setting [14]), in the data set with bacterial inoculum (setting [15]), in the data set with bacterial inoculum (setting [16]) and in the data set on bacterial inoculum (setting [17]) was “+” in each case. Further, in the data set on bacterial inoculum, the “neutralizing 10 ppm of gluteraldehyde” value is “effective”. In data set [1], the LOEC turned out to be 1700 mg/L. This compound also gave an NOEC in data set [1] of 1000 mg/L.

Take `C#CCO` [P, Propargyl alcohol]: the microbial growth entry is “−” in the data set with alkane degrading culture (FT Diesel + 1 Wt %, Day 0); “−” in the data set on alkane degrading culture (FT Diesel + 1 Wt %, Day 1); “−” with alkane degrading culture (FT Diesel + 1 Wt %, Day 5); “−” in the data set on alkane degrading culture (FT Diesel + 1 Wt %, Day 7); “−” with alkane degrading culture (FT Diesel + 1 Wt %, Day 8); “−” with alkane degrading culture (FT Diesel + 1 Wt %, Day 19). The microbial growth result was “−” in the data set with alkane degrading culture (FT Diesel + 100 ppm, Day 0); “−” in the data set on alkane degrading culture (FT Diesel + 100 ppm, Day 1); “−” with alkane degrading culture (FT Diesel + 100 ppm, Day 5); “+” with alkane degrading culture (FT Diesel + 100 ppm, Day 7); “+” with alkane degrading culture (FT Diesel + 100 ppm, Day 8); “+” in the data set with alkane degrading culture (FT Diesel + 100 ppm, Day 19). Further, the microbial growth entry in the data set with alkane degrading culture (setting [18]), in the data set on alkane degrading culture (setting [19]), in the data set on alkane degrading culture (setting [20]), in the data set with alkane degrading culture (setting [21]), with alkane degrading culture (setting [22]) and in the data set on alkane degrading culture (setting [23]) was “−” throughout. The microbial growth result is “−” in the data set with alkane degrading culture (setting [24]); “−” with alkane degrading culture (setting [25]); “+” with alkane degrading culture (setting [26]); “+” in the data set on alkane degrading culture (setting [27]); “+” in the data set on alkane degrading culture (setting [28]); “+” in the data set on alkane degrading culture (setting [29]). Also, the colour of growth result in the data set with alkane degrading culture (setting [26]), in the data set with alkane degrading culture (setting [27]), in the data set on alkane degrading culture (setting [28]) and in the data set with alkane degrading culture (setting [29]) was “Yellow” each time.

For `Nc1ccccc1` [aniline, Aniline], the “toxicity” value in the data set on bacterial inoculum was “excessively toxic”. The microbial growth result in the data set on bacterial inoculum (setting [2]), with bacterial inoculum (setting [3]), in the data set on bacterial inoculum (setting [4]), in the data set on bacterial inoculum (setting [5]), in the data set with bacterial inoculum (setting [6]) and in the data set on bacterial inoculum (setting [7]) was “−” throughout. Moreover, the microbial growth result in the data set on bacterial inoculum (setting [8]) and in the data set on bacterial inoculum (setting [9]) was “−” in each case.

As for `CCNCC` [diethylamine, Diethylamine], the “toxicity” value with bacterial inoculum is listed as “not excessively toxic”. For the same compound, the microbial growth result in the data set on bacterial inoculum (setting [2]) is recorded as “−”; in the data set on bacterial inoculum (setting [3]) it was “−”; with bacterial inoculum (setting [4]), “−”; in the data set with bacterial inoculum (setting [5]), “+”; in the data set on bacterial inoculum (setting [6]), “+”; with bacterial inoculum (setting [7]) it was “+”. Also, the microbial growth result in the data set on bacterial inoculum (setting [8]) is “+”; in the data set with bacterial inoculum (setting [9]), “+”; with bacterial inoculum (setting [10]), “−”; in the data set on bacterial inoculum (setting [11]), “−”; in the data set with bacterial inoculum (setting [12]), “−”; with bacterial inoculum (setting [13]) it was “+”. Further, the microbial growth result in the data set on bacterial inoculum (setting [14]), in the data set on bacterial inoculum (setting [15]), in the data set with bacterial inoculum (setting [16]) and in the data set on bacterial inoculum (setting [17]) was “+” each time. Moreover, the “neutralizing 10 ppm of gluteraldehyde” value in the data set on bacterial inoculum is given as “effective”.

Values taken from patent US6800101B2, “Deactivatable biocides for hydrocarbonaceous products” (priority 2001, dated 2004).
